Measured values published in ChEMBL document CHEMBL1142403, “Synthesis and anti-cancer activity of benzothiazole containing phthalimide on human carcinoma cell lines” (Bioorg Med Chem, 2008).
pIC50: −log10 of the molar value. Calls of active or inactive are those of the source. The calls are words filed in the database; no cut-off is given here.

Tests used:
[1] = system: SK-HEP1; test: Cytotoxicity against human SK-Hep1 cells assessed as reduction in cellular ATP level after 48 hrs; assay type: functional, cell-based; details: SK-HEP1, 48 h, pooled result: one value given for 3 cell lines, strains, targets or settings
[2] = target: T1, Caspase-3 (Homo sapiens) (UniProt P42574); test: Activation of human caspase 3 in human CA46 cells at 110 uM after 48 hrs by PerkinElmer Trupoint assay; assay type: cell-based
T1 sequence (whole entry): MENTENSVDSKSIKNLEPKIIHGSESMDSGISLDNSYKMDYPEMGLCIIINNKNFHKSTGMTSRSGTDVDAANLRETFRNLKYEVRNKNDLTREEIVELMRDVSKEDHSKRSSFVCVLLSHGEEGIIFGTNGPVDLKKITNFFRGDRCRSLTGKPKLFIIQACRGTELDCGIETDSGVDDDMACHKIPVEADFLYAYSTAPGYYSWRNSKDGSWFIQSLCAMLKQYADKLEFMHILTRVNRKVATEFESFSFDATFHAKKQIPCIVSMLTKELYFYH

[3] = target: T1, Caspase-3 (Homo sapiens); test: Activation of human caspase 3 in human SK-Hep1 cells at 110 uM after 48 hrs by PerkinElmer Trupoint assay; assay type: cell-based

Structure (SMILES) | pIC50 [1] | Activity [2] | Activity [3]
C[C@@]12C(=O)N(c3nc4ccc(OC(F)(F)F)cc4s3)C(=O)[C@]1(C)[C@H]1CC[C@@H]2O1 [CANTHARIDIMIDE] | 4.82 |  | 
O=C1c2ccccc2C(=O)N1c1nc2ccc(OC(F)(F)F)cc2s1 [PHATHALIMIDE] | 4.16 | Active | Active
